Earlier results, collected in patent US20150313913A1, “POSITIVE ALLOSTERIC MODULATORS OF THE GABA-A RECEPTOR IN THE TREATMENT OF AUTISM” (UNIVERSITY OF WASHINGTON THROUGH ITS CENTER FOR …, priority 2013, published 2015).

Tested on: GABA-A receptor
Conditions: Table 1, exemplary benzodiazepines; cited from earlier work
For CN(C)Cc1nnc2n1-c1ccc(Cl)cc1C(c1ccccc1)=NC2 [Adinazolam], the “Effect at GABA-A receptor” value is given as “Full agonist”. In the case of CCOC(=O)N1CCC(=O)N(c2ccccc2)c2cc(Cl)ccc21 [Arfendazam], the “Effect at GABA-A receptor” value is listed as “Partial agonist”. In the case of Clc1ccccc1C1=NCc2nnc(C3CCCCC3)n2-c2sc(Br)cc21 [Ciclotizolam], the “Effect at GABA-A receptor” value is given as “Partial Agonist Low efficacy”. In the case of CN1C(=O)CN2CCc3ccccc3C2c2cc(Cl)ccc21 (centres unmarked) [Clazolam], the “Effect at GABA-A receptor” value is listed as “Agonist”. In the case of Cc1ncc2n1-c1ccc(Cl)cc1C(c1ccccc1Cl)=NC2 [Climazolam], the “Effect at GABA-A receptor” value is listed as “Agonist”. In the case of [O-][N+]1=C(c2ccccc2)c2cc(Cl)ccc2N=C(NCC2CC2)C1 [Cyprazepam], the “Effect at GABA-A receptor” value is given as “Agonist”. For O=C1C(O)N=C(c2ccccc2F)c2cc(Cl)ccc2N1CCO (centres unmarked) [Doxefazepam], the “Effect at GABA-A receptor” value is given as “Agonist”. In the case of CCS(=O)(=O)CCN1C(=O)CN=C(c2ccccc2F)c2cc(Cl)ccc21 [Elfazepam], the “Effect at GABA-A receptor” value is listed as “Agonist”. For CCOC(=O)C1N=C(c2ccccc2F)c2cc(Cl)ccc2N(C(=O)NC)C1=O (centres unmarked) [Ethyl carfluzepate], the “Effect at GABA-A receptor” value is given as “Agonist”. For CCOC(=O)C1N=C(c2ccccc2Cl)c2cc(Cl)ccc2NC1=O (centres unmarked) [Ethyl dirazepate], the “Effect at GABA-A receptor” value is given as “Agonist”. For Fc1ccccc1C1=NCCN(CC(F)(F)F)c2ccc(Cl)cc21 [Fletazepam], the “Effect at GABA-A receptor” value is given as “Agonist”. For CN1C(=O)CN=C(c2ccccc2F)c2cc(Cl)ccc21 [Fludiazepam], the “Effect at GABA-A receptor” value is given as “Agonist”. For O=C1CN2CCOC2(c2ccccc2F)c2cc(Cl)ccc2N1CCO (centres unmarked) [Flutazolam], the “Effect at GABA-A receptor” value is listed as “Agonist”. In the case of CN1C(=O)C(O)N=C(c2ccccc2F)c2cc(Cl)ccc21 (centres unmarked) [Flutemazepam], the “Effect at GABA-A receptor” value is given as “Agonist”. For NNC(=O)CN1C(=O)CN=C(c2ccccc2)c2cc(Br)ccc21 [Gidazepam], the “Effect at GABA-A receptor” value is listed as “Agonist (Prodrug)”. For COc1cc2c(cc1OC)C(c1cccc(Cl)c1)=NN=C(C)C2 [Girisopam], the “Effect at GABA-A receptor” value is listed as “Agonist”. In the case of O=C1CN2CCOC2(c2ccccc2F)c2cc(Br)ccc2N1 (centres unmarked) [Haloxazolam], the “Effect at GABA-A receptor” value is given as “Agonist”. In the case of O=C1CN=C(c2ccccc2)c2cc(Cl)ccc2N1CCOCC1CC1 [Iclazepam], the “Effect at GABA-A receptor” value is given as “Agonist”. In the case of NC(=O)c1ncn2c1CN=C(c1ccccc1Br)c1cc(F)ccc1-2 [Imidazenil], the “Effect at GABA-A receptor” value is listed as “Partial agonist”. For O=C1CCNc2ccc(Cl)cc2N1c1ccccc1 [Lofendazam], the “Effect at GABA-A receptor” value is given as “Agonist”. For O=C1Nc2ccc(Cl)nc2C(c2ccccc2Cl)=NC1O (centres unmarked) [Lopirazepam], the “Effect at GABA-A receptor” value is listed as “Agonist Short- acting”. For C[C@@H]1N=C(c2ccccc2Cl)c2cc([N+](=O)[O-])ccc2NC1=O [Meclonazepam], the “Effect at GABA-A receptor” value is given as “Agonist”. In the case of CN1C(=O)CN=C(C2=CCCCC2)c2cc([N+](=O)[O-])ccc21 [Menitrazepam], the “Effect at GABA-A receptor” value is given as “Agonist”. In the case of COCC1CN=C(c2ccccc2Cl)c2cc(Br)ccc2N1C (centres unmarked) [Metaclazepam], the “Effect at GABA-A receptor” value is listed as “Agonist”. In the case of CC1COC2(c3ccccc3Cl)c3cc(Cl)ccc3NC(=O)CN12 (centres unmarked) [Mexazolam], the “Effect at GABA-A receptor” value is given as “Agonist”. For COc1cc2c(cc1OC)C(c1ccc(N)cc1)=NN=C(C)C2 [Nerisopam], the “Effect at GABA-A receptor” value is given as “Agonist”. In the case of O=C(O)C1N=C(c2ccccc2)c2cc([N+](=O)[O-])ccc2NC1=O (centres unmarked) [Nitrazepate], the “Effect at GABA-A receptor” value is listed as “Agonist”. In the case of CC1CN2CC(=O)Nc3ccc(Cl)cc3C2(c2ccccc2)O1 (centres unmarked) [Oxazolam], the “Effect at GABA-A receptor” value is listed as “Agonist”. In the case of CC(C)(C)C(=O)OC1N=C(c2ccccc2)c2cc(Cl)ccc2NC1=O (centres unmarked) [Pivoxazepam], the “Effect at GABA-A receptor” value is given as “Agonist”. In the case of O=C1CN=C(c2ccccc2F)c2cc(Cl)ccc2N1CC(O)CO (centres unmarked) [Proflazepam], the “Effect at GABA-A receptor” value is given as “Agonist”. In the case of O=C1COC(N2CCN=C(c3ccccc3Cl)c3cc(Cl)ccc32)=N1 [Reclazepam], the “Effect at GABA-A receptor” value is given as “Agonist”. In the case of COC(=O)CC[C@@H]1N=C(c2ccccn2)c2cc(Br)ccc2-n2c(C)cnc21 [Remimazolam], the “Effect at GABA-A receptor” value is given as “Agonist”. For CCn1nc(C)c2c1C(c1ccccc1)=NCC(=O)N2 [Ripazepam], the “Effect at GABA-A receptor” value is listed as “Agonist”. For CCCN(CCC)Cc1nc(-c2ncn3c2CN(C)C(=O)c2cc(F)ccc2-3)no1 [Ro48-6791], the “Effect at GABA-A receptor” value is given as “Agonist”. For C#Cc1ccc2c(c1)C(c1ccccc1F)=N[C@H](C)c1c(C(=O)OCC)ncn1-2 [SH-053-R-CH3-2′F], the “Effect at GABA-A receptor” value is given as “Agonist”. In the case of CN1C(=S)CN=C(c2ccccc2)c2cc(Cl)ccc21 [Sulazepam], the “Effect at GABA-A receptor” value is given as “Agonist”. For CN1C(=O)CC(=O)N(c2ccccc2)c2cc(C(F)(F)F)ccc21 [Triflubazam], the “Effect at GABA-A receptor” value is given as “Agonist”. For C=CCONC1=Nc2ccc(Cl)cc2C(c2ccccc2Cl)=NC1 [Uldazepam], the “Effect at GABA-A receptor” value is listed as “Agonist”. For Clc1ccc2c(n1)C(c1ccccc1Cl)=NCc1nncn1-2 [Zapizolam], the “Effect at GABA-A receptor” value is listed as “Agonist”. In the case of Cc1nn(C)c2c1C(c1ccccc1F)=NCC(=O)N2C [Zolazepam], the “Effect at GABA-A receptor” value is listed as “Agonist”. In the case of Cc1nn(C)c2c1N(c1ccccc1)C(=O)CC(=O)N2C [Zomebazam], the “Effect at GABA-A receptor” value is listed as “Agonist”.

Same assay, conditions: Table 2, exemplary SS-PAMs; cited from earlier work
For CCCc1c(Cn2ccnc2-c2ncccc2F)ncn2nc(C)nc12 [Adipiplon], the “Effect at GABA receptor” value is given as “Partial agonist α3 selective”. For CCCN(CCC)C(=O)Cc1c(-c2ccc(Cl)cc2)nc2ccc(Cl)cn12 [Alpidem], the “Effect at GABA receptor” value is given as “Agonist α3 subtype selective”. For O=C1N=C(N2CCCCC2)CN1c1ccc(Cl)cc1 [ELB-139], the “Effect at GABA receptor” value is listed as “Partial agonist Highest affinity for α3 subtype but highest efficacy at the α1 and α2 subunits”. For c1cc(-n2ccnc2)cc(-n2cnc3cc(-c4ccoc4)ccc32)c1 [NS-2664], the “Effect at GABA receptor” value is given as “Partial agonist α2,3 subtype selective”. For CCO/N=C(\C)c1ccc2c(c1)ncn2-c1cccc(-c2cccnc2)c1 [NS-2710], the “Effect at GABA receptor” value is given as “Partial agonist α2,3 subtype selective”. In the case of CC(C)(O)c1ccc2c(c1)ncn2-c1cccc(-c2ccccc2C#N)c1 [NS-11394], the “Effect at GABA receptor” value is given as “Agonist α3,5 subtype selective”. In the case of CC(C)CCC(=O)CC1c2ccccc2C(=O)N1c1ccc2ccc(Cl)nc2n1 (centres unmarked) [Pagoclone], the “Effect at GABA receptor” value is listed as “Partial agonist α2,3 selective”. For CC#CCOC(=O)c1c(C)nc2sc3c(c2c1N)CCC(O)C3 (centres unmarked) [SB-205,384], the “Effect at GABA receptor” value is listed as “Agonist α3,5,6 subtype selective”. In the case of Cn1c2ccc(F)cc2c2c(C(=O)N3CCCC3)cn(-c3ccccc3)c(=O)c21 [SL-651,498], the “Effect at GABA receptor” value is listed as “Full agonist α2,3 selective”. In the case of CC(C)(O)c1ccn2c(-c3ccc(F)c(-c4ccc(F)cc4C#N)c3)cnc2c1F [TP-003], the “Effect at GABA receptor” value is given as “Partial agonist α2,3,5 subtype selective binding and α3 selective efficacy”. In the case of Cn1ncnc1COc1nn2c(-c3ccccc3)nnc2cc1C1CCC1 [TP-13], the “Effect at GABA receptor” value is given as “Partial agonist at α2,3 subunits”. In the case of CCn1ncnc1COc1nn2c(-c3ccccc3F)nnc2cc1C(C)(C)C [TPA-023, 7-(1,1-dimethylethyl)-6-(2-ethyl-2H-1,2,4-triazol-3-ylmethoxy)-3-(2-fluorophenyl)-1,2,4-triazolo[4,3-b]pyridazine], the “Effect at GABA receptor” value is given as “Partial agonist at α2,3 subunits Antagonist at α1,5 subunits”. For Cc1cc2c(N3CCCC3)nc(N3CCCC3)nc2n1C [U-89843A], the “Effect at GABA receptor” value is given as “Agonist at α1,3,6 subunits”. In the case of Clc1ccc2c(c1)C1=NCCN1c1c(-c3noc(C4CC4)n3)ncn1-2 [U-90042], the “Effect at GABA receptor” value is given as “Agonist at α1,3,6 subunits”.

Same assay, conditions: Table 4, exemplary non-BDZ GABA-A enhancers; cited from earlier work
In the case of COCc1c(C(=O)OC(C)C)ncc2[nH]c3ccc(OCc4ccccc4)cc3c12 [Abecarnil], the “Effect at GABA receptor” value is listed as “Partial agonist”. For O=c1c2cnc3ccccc3c2[nH]n1-c1ccccc1 [CGS-8216], the “Effect at GABA receptor” value is listed as “Agonist”. For O=c1c2cnc3ccccc3c2[nH]n1-c1ccc(Cl)cc1 [CGS-9896], the “Effect at GABA receptor” value is given as “Agonist”. For O=c1nc2ccccc2c2nc(-c3ccccc3)[nH]n12 [CGS-13767], the “Effect at GABA receptor” value is listed as “Agonist”. For COc1ccc(-n2[nH]c3c4c(ncc3c2=O)CCCCC4)cc1 [CGS-20625], the “Effect at GABA receptor” value is given as “Agonist”. For CCc1c(OC)nc2nc(C(=O)c3ccccc3)cn2c1C [Divaplon], the “Effect at GABA receptor” value is listed as “Partial agonist”. In the case of CCc1c(OC)nc2nc(-c3noc(C)n3)cn2c1C [Fasiplon], the “Effect at GABA receptor” value is given as “Agonist”. For COc1c(-c2ccc(N)cc2)nc2ccc(NCc3cccc(C)c3)nn12 [GBLD-345], the “Effect at GABA receptor” value is listed as “Full agonist”. In the case of COCc1c(C(=O)OC(C)C)ncc2[nH]c3cccc(Cc4ccc(Cl)cc4)c3c12 [Gedocarnil], the “Effect at GABA receptor” value is given as “Agonist”. For CC(=O)N(C)c1cc(-c2ccnc3c(C(=O)c4cccs4)cnn23)ccc1F [Lorediplon], the “Effect at GABA receptor” value is given as “Agonist”. For CCc1ccc(-c2nc3ccc(C)cn3c2CN(C)C(=O)CC(C)C)cc1 [Necopidem], the “Effect at GABA receptor” value is given as “Agonist”. In the case of O=C(c1ccccn1)c1cnn2c(-c3ccncc3)ccnc12 [Ocinaplon], the “Effect at GABA receptor” value is listed as “Agonist”. For CC(C)n1c(=O)c2c(-c3noc(C4CC4)n3)ncn2c2ccccc21 [Panadiplon], the “Effect at GABA receptor” value is given as “Partial agonist”. For c1ccc(-c2cc(CCC3CCNCC3)c3ccccc3n2)cc1 [Pipequaline], the “Effect at GABA receptor” value is given as “Partial agonist”. In the case of Cc1ccc(S(=O)(=O)N2CCc3ccccc3[C@@H]2[C@@H]2CCC(=O)O2)cc1 [ROD-188], the “Effect at GABA receptor” value is listed as “Agonist”. For CCOCN1C2=C(C(=O)Nc3ccccc3F)C(=O)CCN2c2ccc(F)cc21 [RWJ-51204], the “Effect at GABA receptor” value is listed as “Partial agonist”. In the case of CCC(=O)N1CCN(C(=O)O[C@H]2C3SCCSC3C(=O)N2c2ccc3ccc(Cl)nc3n2)CC1 (some centres unmarked) [Suproclone], the “Effect at GABA receptor” value is listed as “Agonist”. In the case of CN1CCN(C(=O)OC2C3=C(SCCS3)C(=O)N2c2ccc3ccc(Cl)nc3n2)CC1 (centres unmarked) [Suriclone], the “Effect at GABA receptor” value is listed as “Agonist”. For COc1nc2nc(-c3noc(C)n3)cn2c2c1CCCC2 [Taniplon], the “Effect at GABA receptor” value is given as “Agonist”. For O=c1cc2c(nn1-c1ccc(Cl)cc1)-c1ccccc1[S+]([O-])CC2 (centres unmarked) [Y-23684], the “Effect at GABA receptor” value is listed as “Partial agonist Non- selective”. For CCOC(=O)c1ncc2[nH]c3ccc(OCc4ccccc4)cc3c2c1COC [ZK-93423], the “Effect at GABA receptor” value is given as “Agonist”.

Tested on: not given
Conditions: Table 4; cited from earlier work
In the case of CC(C)(C)C(O)/C=C/c1ccc2c(c1)OCO2 (centres unmarked) [Stiripentol], the “Dose in humans for anti-anxiety, anti-convulsive, or sedative effects” value is listed as 50-100 mg/kg/day (max daily dose 4 g).
